Reference: ChEMBL document CHEMBL3621146, “Design of Potent and Orally Active GPR119 Agonists for the Treatment of Type II Diabetes” (ACS Med Chem Lett, 2015)
Values after ≈ are worked out from the molar mass of the structure shown.

What was measured:
[1] = Kinetic solubility in FaSSIF at pH 6.5; format: physicochemical; settings: for solubility kinetic: FaSSIF, read-out: Kinetic_solubility
[2] = (§1) Half life in Wistar Han rat at 0.5 mg/kg, iv LC-MS/MS method; format: ADME, organism-based; settings: Wistar Han, in vivo
[3] = molecular target: T1, Glucose-dependent insulinotropic receptor (Mus musculus, UniProt Q7TQP3); assay: Agonist activity at mouse GPR119 by cAMP assay; format: functional
T1 sequence (Q7TQP3 whole entry): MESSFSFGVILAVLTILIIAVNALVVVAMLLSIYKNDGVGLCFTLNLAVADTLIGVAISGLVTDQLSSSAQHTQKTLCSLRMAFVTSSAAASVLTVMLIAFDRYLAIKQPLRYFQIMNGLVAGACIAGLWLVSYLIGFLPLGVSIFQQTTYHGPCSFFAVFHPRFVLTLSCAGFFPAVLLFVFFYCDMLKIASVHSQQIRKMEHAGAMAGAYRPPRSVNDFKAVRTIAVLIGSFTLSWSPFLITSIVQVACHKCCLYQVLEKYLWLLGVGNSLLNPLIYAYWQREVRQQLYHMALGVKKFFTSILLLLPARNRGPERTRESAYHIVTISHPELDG

[4] = molecular target: T2, Glucose-dependent insulinotropic receptor (Homo sapiens, UniProt Q8TDV5); assay: Agonist activity at human GPR119 expressed in CHO cells by cAMP assay; format: functional, cell-based
T2 sequence (Q8TDV5 whole entry): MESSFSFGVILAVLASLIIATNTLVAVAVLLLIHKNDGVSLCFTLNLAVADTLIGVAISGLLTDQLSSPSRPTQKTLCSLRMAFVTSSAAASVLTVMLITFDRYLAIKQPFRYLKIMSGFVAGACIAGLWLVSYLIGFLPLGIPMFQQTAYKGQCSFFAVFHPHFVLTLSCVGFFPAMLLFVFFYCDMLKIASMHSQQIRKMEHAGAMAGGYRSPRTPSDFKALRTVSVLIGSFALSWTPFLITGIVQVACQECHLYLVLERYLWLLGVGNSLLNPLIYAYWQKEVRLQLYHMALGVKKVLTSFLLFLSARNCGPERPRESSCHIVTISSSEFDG

[5] = molecular target: T3, Glucose-dependent insulinotropic receptor (Mus musculus) (UniProt Q7TQP3); assay: Agonist activity at mouse GPR119 by cAMP assay relative to control; format: functional; design: concentration or dose not given beside the values
T3 sequence (whole entry): T1 sequence (Q7TQP3 whole entry)

[6] = Lipophilicity, logD of the compound at pH 7 by HPLC method; format: physicochemical; settings: buffer
[7] = molecular target: T4, Glucose-dependent insulinotropic receptor (Homo sapiens) (UniProt Q8TDV5); assay: Agonist activity at human GPR119 by cAMP assay relative to control; format: functional; design: concentration or dose not given beside the values
T4 sequence (whole entry): T2 sequence (Q8TDV5 whole entry)

Rattus norvegicus [8] = assay: as §1; format: ADME, organism-based; settings: in vivo
[9] = Intrinsic clearance in rat liver microsomes; format: ADME; settings: read-out: CLH
Rattus norvegicus [10] = assay: Volume of distribution in Wistar Han rat at 0.5 mg/kg, iv LC-MS/MS method; format: ADME, organism-based; settings: in vivo
Rattus norvegicus [11] = assay: Unbound volume of distribution in Wistar Han rat at 0.5 mg/kg, iv LC-MS/MS method; format: ADME, organism-based; settings: in vivo
[12] = Fraction unbound in rat plasma; format: ADME, cell-free

solubility kinetic [1] [µM] | half-life [2] [h] | EC50 [3] [nM] | EC50 [4] [nM] | Activity [5] [%] | logD [6] | Activity [7] [%] | t1/2 (Rattus norvegicus [8]) [h] | CLint scaled [9] [mL/min/kg] | Vd (Rattus norvegicus [10]) [L/kg] | Vdu (Rattus norvegicus [11]) [L/kg] | fraction unbound [12] | Kinetic_solubility ([1]; simulated gi fluid) [µM] | Compound
133 (≈ 60.3 µg/mL) | 3 | 3.8 | 1.1 | 75 | 3.7 | 84 | – | – | – | – | – | – | COCc1cnc(N2CCC([C@H]3C[C@H]3COCc3ccc(-n4cnnn4)c(F)c3)CC2)nc1
7 (≈ 3.01 µg/mL) | 1.3 | 2.5 | 1.5 | 153 | 3.6 | 83 | – | – | – | – | – | – | CCc1cnc(N2CCC([C@H]3C[C@H]3COCc3ccc(S(C)(=O)=O)cn3)CC2)nc1
172 (≈ 88.2 µg/mL) | 0.4 | 3.7 | 3.2 | 99 | 3.4 | 104 | – | – | – | – | – | – | COCc1cnc(N2CCC([C@H]3C[C@H]3COCc3ccc(CC(=O)N4CCOCC4)cc3F)CC2)nc1
103 (≈ 45.5 µg/mL) | 1.4 | 4.8 | 1.7 | 105 | 3.9 | 129 | – | – | – | – | – | – | CC(C)c1noc(N2CCC([C@H]3C[C@H]3COCc3ccc(-n4cnnn4)cc3F)CC2)n1
127 (≈ 59.1 µg/mL) | – | – | 0.8 | – | 4 | 71 | 1.5 | 905 | 4.8 | 62 | 0.058 | – | CCS(=O)(=O)c1ccc(COC[C@@H]2C[C@@H]2C2CCN(c3nc(C(C)C)no3)CC2)c(F)c1
115 (≈ 55.4 µg/mL) | 0.5 | 5.8 | 4.5 | 67 | 3.6 | 80 | – | – | – | – | – | – | COCc1cnc(N2CCC([C@H]3C[C@H]3COCc3cc(F)c(S(C)(=O)=O)c(F)c3)CC2)nc1
83 (≈ 40.2 µg/mL) | 0.9 | 1.7 | 2.3 | 121 | 4.8 | 68 | – | – | – | – | – | – | O=S(=O)(CCO)c1ccc(COC[C@@H]2C[C@@H]2C2CCN(c3ncc(Cl)cn3)CC2)c(F)c1
144 (≈ 65 µg/mL) | 2.2 | 9.9 | 4.2 | 76 | 3.8 | 87 | – | – | – | – | – | – | CC(C)c1noc(N2CCC([C@H]3C[C@H]3COCc3ccc(S(C)(=O)=O)cc3F)CC2)n1
– | 1.4 | 8.9 | 3.1 | – | – | – | – | – | – | – | – | 143 | COC(C)c1cnc(N2CCC([C@H]3C[C@H]3COCc3ccc(S(C)(=O)=O)cc3F)CC2)nc1 (stereo in doubt; 29)
127 (≈ 54.5 µg/mL) | 1 | 15 | 4.8 | 108 | 3.8 | 121 | – | – | – | – | – | – | CC1(OC(=O)N2CCC([C@H]3C[C@H]3COCc3ccc(-n4cnnn4)cc3F)CC2)CC1
